Experimental data: article PMC10403075, “Short hydrocarbon stapled ApoC2-mimetic peptides activate lipoprotein lipase and lower plasma triglycerides in mice” (Frontiers in Cardiovascular Medicine, 2023)
Where two headings read alike, the source gives them in different places. Residues, ends and D or L forms follow the SMILES beside them.

Legend:
[1] = system: hAPOC3-tg mice; conditions: ApoC3 transgenic mice; cited from earlier work
From the text: (§1) We recently developed a bi-helical ApoC2 mimetic peptide called D6PV that contains 41 amino acids ([16]). ApoC2 mimetic peptides could potentially be used as a treatment for pancreatitis in patients with genetic APOC2 deficiency and for the prevention of cardiovascular disease in patients with moderate elevations in plasma triglycerides ([1]). […] Except for one amino acid substitution, the secon ...

[2] = system: Apoc2^h/h mice; conditions: ApoC2 hypomorphic mice, single intravenous injection, within a few hours; cited from earlier work
From the text: as §1

[3] = target: T1, human LPL (Homo sapiens, UniProt P06858); assay: Isothermal titration calorimetry LPL activity assay in pooled human plasma; assay type: biochemical; conditions: normolipidemic pooled human EDTA-plasma nearly undiluted, 1 nM human LPL injections, 25°C, initial rate, on top of endogenous activators, triplicates
T1 sequence (P06858 28-475): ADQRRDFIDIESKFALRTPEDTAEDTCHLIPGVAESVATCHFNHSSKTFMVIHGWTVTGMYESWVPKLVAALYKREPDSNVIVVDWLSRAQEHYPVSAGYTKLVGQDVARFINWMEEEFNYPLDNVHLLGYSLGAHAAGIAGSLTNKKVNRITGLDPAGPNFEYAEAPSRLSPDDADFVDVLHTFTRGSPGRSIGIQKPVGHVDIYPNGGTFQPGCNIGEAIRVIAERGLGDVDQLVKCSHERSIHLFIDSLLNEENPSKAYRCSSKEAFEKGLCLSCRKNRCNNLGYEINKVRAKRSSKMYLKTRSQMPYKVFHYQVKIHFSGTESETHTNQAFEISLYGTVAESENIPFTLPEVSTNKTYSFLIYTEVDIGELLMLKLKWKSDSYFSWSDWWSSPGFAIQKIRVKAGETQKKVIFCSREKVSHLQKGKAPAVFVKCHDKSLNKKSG
Description: Isothermal titration calorimetry (ITC) measurements, which depends upon the initial rate of reaction, were performed to assess peptide activation of LPL in nearly undiluted human plasma as previously described ([22], [23]). Peptides in 20 mM TRIS, pH 8.2 at the indicated concentrations were added to a normolipidemic EDTA-plasma pool. The reaction was initiated by three sequential injections of 1 nM human LPL. The heat of the reaction was monitored with the iTC200 calorimeter (GE Healthcare, USA) and the initial reaction rates at 25°C were converted into relative activity units.

[4] = system: Pepsin; assay: Peptide proteolysis resistance, pepsin; assay type: in vitro ADME; conditions: peptide 0.1 mM, pepsin 3 mg/ml, 0.02M acetate buffer pH 2, 1 h, MALDI-TOF with internal standards, triplicates
Description: (§2) Peptides (0.1 mM) were incubated at 37°C in 20 mM ammonium bicarbonate buffer at pH 8.2, with 10 ug/ml trypsin or […] Proteinase K. To test resistance to Pepsin, peptides (0.1 mM) were incubated with Pepsin (3 mg/ml) in 0.02M acetate buffer (pH 2). The amount of intact peptide was monitored over time by Matrix-assisted laser desorption/ionization time-of-flight (MALDI-TOF) on a Bruker Autoflex III instrument (Bruker Optics, Inc., USA). Internal standards (Bombesin, ACTH (1–17), ACTH (18–39) and Insulin) were used to quantify the relative amount of peptide in each sample.

[5] = system: Apoc2^h/h mice; assay: Plasma lipids in ApoC2-hypomorphic mice after peptide injection; assay type: in vivo, mouse; conditions: single IP 1 umole/kg, n = 4
Description: ApoC2–hypomorphic mice (Apoc2^h/h) ([25]) and human ApoC3-transgenic (hAPOC3-tg) mice ([26]) were fed a regular rodent chow diet (NIH-31 chow diet: Zeigler Brothers Inc.). Peptides dissolved in 20 mM TRIS (pH 8.2) or vehicle control were injected intraperitoneally or intravenously at the indicated concentrations. Blood samples were collected from the retro-orbital sinus with a heparinized capillary tube. Whole blood was centrifuged at 1,000 g for 20 min at 4°C to obtain plasma. All animal procedures were approved by the National Heart, Lung, and Blood Institute Animal Care and Use Committee (protocol #H-0050).

[6] = target: T2, LPL from bovine milk (Bos taurus, UniProt P11151); assay: In vitro LPL activity assay (NEFA generation, ApoC2-deficient plasma substrate); assay type: biochemical
T2 construct: LPL from bovine milk (Sigma-Aldrich); purchased Sigma-Aldrich; host or cells: bovine milk (natural source)
T2 sequence (P11151 29-478): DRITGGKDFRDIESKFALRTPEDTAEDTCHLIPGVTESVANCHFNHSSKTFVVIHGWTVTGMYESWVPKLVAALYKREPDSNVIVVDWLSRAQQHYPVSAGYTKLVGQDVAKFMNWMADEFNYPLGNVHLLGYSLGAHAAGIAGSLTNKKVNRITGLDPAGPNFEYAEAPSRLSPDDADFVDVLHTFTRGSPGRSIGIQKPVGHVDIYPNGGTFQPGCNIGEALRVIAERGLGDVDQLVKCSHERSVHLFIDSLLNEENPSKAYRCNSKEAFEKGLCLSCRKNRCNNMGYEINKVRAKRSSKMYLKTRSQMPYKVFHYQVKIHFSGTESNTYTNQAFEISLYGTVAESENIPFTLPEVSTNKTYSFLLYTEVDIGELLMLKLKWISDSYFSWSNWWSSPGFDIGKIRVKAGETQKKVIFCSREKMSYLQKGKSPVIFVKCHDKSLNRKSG
Description: (§3) LPL activity was determined by measuring the generation of non-esterified fatty acids (NEFA). In a 96-well plate, 0–2 µM of an ApoC2 mimetic peptide, 0.83 nM of LPL from bovine milk (Sigma-Aldrich), ApoC2-deficient ethylenediaminetetraacetic acid (EDTA)-plasma (diluted with PBS to a final TG concentration of 0.67 mg/dl), 2 IU/ml heparin, 0.2% fatty acids free bovine serum albumin (BSA) (ICN Biomedicals), and PBS (Life Technologies) were combined in a final reaction volume of 50 μl. The reaction mixture was pre-incubated on ice for 30 min and incubated at 37°C for 1 h. NEFA were measured with a coupled enzyme reaction (Wako Diagnostics) in a Synergy H1 microplate reader (BioTek, USA).

[7] = target: T2, LPL from bovine milk; assay: In vitro LPL activation assay after pepsin treatment; assay type: biochemical; conditions: 1 h pepsin at pH 2, then pH neutralised; compared with untreated peptide, area-under-the-curve, triplicates
Description: as §3, §2
Figure 4 Peptide proteolysis resistance. […]

[8] = Circular dichroism spectroscopy; assay type: physicochemical; conditions: CD 190-250 nm, 0.1 cm cell, calculated from spectrum
Description: Circular dichroism (CD) spectra were acquired on a Chirascan Q100 spectrometer. CD spectra were recorded in the190–250 nm range, using a 0.1 cm quartz cell and analyzed with Bettsele® on-line software ([24]).

[9] = target: Proteinase K (Parengyodontium album, UniProt P06873); assay type: in vitro ADME
Chain of Proteinase K (P06873 106-384): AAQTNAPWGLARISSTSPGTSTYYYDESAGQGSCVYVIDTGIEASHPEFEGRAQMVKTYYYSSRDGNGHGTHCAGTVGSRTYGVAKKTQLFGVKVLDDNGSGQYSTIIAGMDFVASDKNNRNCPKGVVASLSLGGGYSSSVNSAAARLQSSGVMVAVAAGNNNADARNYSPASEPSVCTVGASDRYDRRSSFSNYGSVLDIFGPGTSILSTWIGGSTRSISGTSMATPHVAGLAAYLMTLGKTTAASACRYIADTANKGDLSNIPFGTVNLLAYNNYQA
Description: as §2

[10] = system: trypsin; assay: Peptide proteolysis resistance, trypsin; assay type: in vitro ADME; conditions: peptide 0.1 mM, 10 ug/ml trypsin, 20 mM ammonium bicarbonate pH 8.2, 37°C, MALDI-TOF with internal standards, first time point 3 h, triplicates
Description: as §2

[11] = DMPC vesicle clearance (solubilization) assay; assay type: physicochemical; conditions: peptide 0-100 µM in 20 mM TRIS pH 8.2, DMPC vesicles 0.5 mg/ml in PBS, absorbance 660 nm, 1 h, 24°C
Description: Dimyristoyl Phosphatidyl Choline (DMPC) (Avanti 850345C) vesicles were made by sonication (0.5 mg/ml) in phosphate buffer saline (PBS). Peptides (0, 25, 50 and 100 µM) in 20 mM TRIS, pH 8.2 were added to DMPC vesicles (0.5 mg/ml) prepared by sonication in PBS and turbidity was monitored in a Victor^3 plate reader (Perkin Elmer, USA) by monitoring absorbance at 660 nm for 1 h at 24°C. Samples were shaken at 300 RPM. Absorbance over time was plotted and areas-under-the-curve (AOC) were calculated. PBS was used as a negative control sample and Triton X-100 at a final concentration of 1% (w/v) was used as positive control.

Structure (SMILES)	plasma TG [1]	plasma TG [2]	LPL activity by isothermal titration calorimetry [3]	intact full-length peptide after pepsin incubation [4]	reduction in plasma triglycerides ([5]; 3 h after injection) [%]	plasma cholesterol [5]	EC50 [6] [nM]	ability to activate LPL after pepsin treatment [7]	alpha-helical secondary structure by CD [8] [%]	intact full-length peptide after Proteinase K incubation ([9]; pH 8.2)	intact full-length peptide after trypsin incubation [10]	in vitro LPL activation, dose response (result in words) ([6]; 0-2 µM peptide, bovine milk LPL, ApoC2-deficient plasma substrate, 37°C 1 h, NEFA read-out, triplicates)	DMPC vesicle solubilization [11]	intact full-length peptide after Proteinase K incubation ([9]; peptide 0.1 mM, 16 ug/kg Proteinase K, 20 mM ammonium bicarbonate pH 8.2, 37°C, MALDI-TOF with internal standards, first time point 3 h, triplicates)
CC[C@H](C)[C@H](NC(=O)CNC(=O)[C@@H](NC(=O)[C@H](Cc1ccc(O)cc1)NC(=O)[C@@H](NC(=O)[C@H](CO)NC(=O)[C@@H](NC(=O)[C@H](C)NC(=O)[C@@H]1CCCN1C(=O)[C@@H](NC(=O)[C@H](Cc1ccccc1)NC(=O)[C@H](CCCCN)NC(=O)[C@H](CCC(=O)O)NC(=O)[C@H](Cc1ccc(O)cc1)NC(=O)[C@H](CC(C)C)NC(=O)[C@H](CC(=O)O)NC(=O)[C@H](CCCNC(=N)N)NC(=O)[C@H](CC(C)C)NC(=O)[C@H](CCCCN)NC(=O)[C@H](CCC(=O)O)NC(=O)[C@H](Cc1ccccc1)NC(=O)[C@@H](NC(=O)[C@H](CCC(=O)O)NC(=O)[C@H](CCCCN)NC(=O)[C@H](CC(C)C)NC(=O)[C@H](Cc1ccc(O)cc1)NC(=O)[C@@H](N)CC(=O)O)C(C)C)[C@@H](C)O)C(C)C)[C@@H](C)O)[C@@H](C)O)C(=O)N[C@@H](Cc1ccccc1)C(=O)N[C@H](C(=O)N[C@@H](CC(=O)O)C(=O)N[C@@H](CCC(N)=O)C(=O)N[C@H](C(=O)N[C@@H](CC(C)C)C(=O)N[C@@H](CO)C(=O)N[C@H](C(=O)N[C@@H](CC(C)C)C(=O)N[C@@H](CCCCN)C(=O)NCC(=O)N[C@@H](CCC(=O)O)C(=O)N[C@@H](CCC(=O)O)C(=O)O)C(C)C)C(C)C)[C@@H](C)O [D6PV, reference compound] (H-DYLKEVFEKLRDLYEKFTPAVSTYTGIFTDQVLSVLKGEE-OH; N-terminus assumed)	lowered TG	markedly lowered TG	doubled the activity of LPL	No intact peptide was observed	> 90	lowered plasma cholesterol	107	almost completely inactive	42	essentially no intact peptide was detected	essentially no intact peptide was detected			
CCCC[C@H](NC(=O)[C@H](C)NC(C)=O)C(=O)N[C@]1(C)CCCCCCC=CCCCC2(CCCC=CCCCCCC[C@@](C)(C(=O)N[C@@H](CCCCN)C(=O)N(C)CC(=O)N[C@H](CCC(=O)O)C(=O)N[C@H](CCC(=O)O)C(=O)O)NC(=O)[C@H](C(C)C)NC(=O)[C@H](CO)NC(=O)[C@H](CC(C)C)NC(=O)[C@H](C(C)C)NC(=O)[C@H](CCC(N)=O)NC(=O)[C@H](CC(=O)O)NC2=O)NC(=O)[C@H](Cc2ccccc2)NC(=O)[C@H]([C@@H](C)CC)NC(=O)CNC(=O)[C@H]([C@@H](C)O)NC(=O)[C@H](Cc2ccc(O)cc2)NC(=O)[C@H]([C@@H](C)O)NC1=O (stereo partly drawn) [SP2]				resistant to proteolysis				fully active	46		resistant to both proteases	slightly more potent than SP1	most effective in solubilizing DMPC vesicles	resistant to both proteases
